System: 188146-221-R-J1-PDC complex spheroid viability
Assay: Anticancer human tumor 188146-221-R-J1-PDC patient-derived colon adenocarcinoma cell line growth inhibition [POLQ]
Details: for IC50: curve of first compound; for viability, T/C: stronger effect = lower value
How it was run: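 Complex spheroid viability model combining PDC tumour cells with endothelial (HUVEC) and MSC stromal cells. Novobiocin, ART-558 or RP6685 were tested singly and in combination with standard and investigational anticancer drugs. Each was titrated in half-log steps from near clinical Cmax, or from 10 microM where Cmax was unknown.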

[1] = second compound 0.0316 µM, first compound 0.0316 µM
[2] = second compound 0.0316 µM, first compound 0.1 µM
[3] = second compound 0.0316 µM, first compound 0.316 µM
[4] = second compound 0.0316 µM, first compound 1 µM
[5] = second compound 0.0316 µM, first compound 3.16 µM
[6] = second compound 0.0316 µM, first compound 10 µM
[7] = second compound 0.1 µM, first compound 0.0316 µM
[8] = second compound 0.1 µM, first compound 0.1 µM
[9] = second compound 0.1 µM, first compound 0.316 µM
[10] = second compound 0.1 µM, first compound 1 µM
[11] = second compound 0.1 µM, first compound 3.16 µM
[12] = second compound 0.1 µM, first compound 10 µM
[13] = second compound 0.316 µM, first compound 0.0316 µM
[14] = second compound 0.316 µM, first compound 0.1 µM
[15] = second compound 0.316 µM, first compound 0.316 µM
[16] = second compound 0.316 µM, first compound 1 µM
[17] = second compound 0.316 µM, first compound 3.16 µM
[18] = second compound 0.316 µM, first compound 10 µM
[19] = second compound 1 µM, first compound 0.0316 µM
[20] = second compound 1 µM, first compound 0.1 µM
[21] = second compound 1 µM, first compound 0.316 µM
[22] = second compound 1 µM, first compound 1 µM
[23] = second compound 1 µM, first compound 3.16 µM
[24] = second compound 1 µM, first compound 10 µM
[25] = second compound 3.16 µM, first compound 0.0316 µM
[26] = second compound 3.16 µM, first compound 0.1 µM
[27] = second compound 3.16 µM, first compound 0.316 µM
[28] = second compound 3.16 µM, first compound 1 µM
[29] = second compound 3.16 µM, first compound 3.16 µM
[30] = second compound 3.16 µM, first compound 10 µM
[31] = second compound 10 µM, first compound 0.0316 µM
[32] = second compound 10 µM, first compound 0.1 µM
[33] = second compound 10 µM, first compound 0.316 µM
[34] = second compound 10 µM, first compound 1 µM
[35] = second compound 10 µM, first compound 3.16 µM
[36] = second compound 10 µM, first compound 10 µM
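Also: spheroids exposed to compounds for seven days.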
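For viability, T/C in this document: 100% = DMSO vehicle control viability.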

`CCc1cc2c(N3CCc4c(cc(Cn5ccnc5)cc4-c4cn(C)nc4C(F)(F)F)C3=O)cc(C)nc2c(OC)n1` + COC1C(OC(N)=O)C(O)C(Oc2ccc3c(O)c(NC(=O)c4ccc(O)c(CC=C(C)C)c4)c(=O)oc3c2C)OC1(C)C showed an IC50 (second compound 0.0316 µM) of 7.26 µM, an IC50 (second compound 0.1 µM) greater than 10 µM and an IC50 (second compound 0.316 µM) of 9.01 µM. It also gave an IC50 (second compound 1 µM) greater than 10 µM, an IC50 (second compound 3.16 µM) greater than 10 µM and an IC50 (second compound 10 µM) of 6.16 µM. It also gave a viability, T/C [1] of 112%, a viability, T/C [2] of 102% and a viability, T/C [3] of 92.1%. It also gave a viability, T/C [4] of 88.1%, a viability, T/C [5] of 66.3% and a viability, T/C [6] of 42.8%. For the same compound, the viability, T/C [7] was 108%, the viability, T/C [8] was 101% and the viability, T/C [9] was 97.7%. For the same compound, the viability, T/C [10] was 85.4%, the viability, T/C [11] was 66.4% and the viability, T/C [12] was 55.9%. It also gave a viability, T/C [13] of 106%, a viability, T/C [14] of 108% and a viability, T/C [15] of 105%. The viability, T/C [16] was 83.3%, the viability, T/C [17] was 62.4% and the viability, T/C [18] was 48.2%. For the same compound, the viability, T/C [19] was 108%, the viability, T/C [20] was 108% and the viability, T/C [21] was 101%. The viability, T/C [22] was 83.2%, the viability, T/C [23] was 64.2% and the viability, T/C [24] was 53.2%. For the same compound, the viability, T/C [25] was 104%, the viability, T/C [26] was 114% and the viability, T/C [27] was 103%. It also gave a viability, T/C [28] of 89.2%, a viability, T/C [29] of 73.9% and a viability, T/C [30] of 51.1%. It also gave a viability, T/C [31] of 97.5%, a viability, T/C [32] of 98% and a viability, T/C [33] of 101%. For the same compound, the viability, T/C [34] was 78.5%, the viability, T/C [35] was 60.2% and the viability, T/C [36] was 43.2%.
`COc1cc2cc(C(=O)CCC(=O)O)sc2cc1OC` + COC1C(OC(N)=O)C(O)C(Oc2ccc3c(O)c(NC(=O)c4ccc(O)c(CC=C(C)C)c4)c(=O)oc3c2C)OC1(C)C was tested, and the IC50 (second compound 0.0316 µM) was greater than 10 µM, the IC50 (second compound 0.1 µM) was greater than 10 µM and the IC50 (second compound 0.316 µM) was greater than 10 µM. It also gave an IC50 (second compound 1 µM) greater than 10 µM, an IC50 (second compound 3.16 µM) greater than 10 µM and an IC50 (second compound 10 µM) greater than 10 µM. For the same compound, the viability, T/C [1] was 108%, the viability, T/C [2] was 107% and the viability, T/C [3] was 107%. It also gave a viability, T/C [4] of 111%, a viability, T/C [5] of 107% and a viability, T/C [6] of 98%. The viability, T/C [7] was 105%, the viability, T/C [8] was 98.3% and the viability, T/C [9] was 99.9%. It also gave a viability, T/C [10] of 99.8%, a viability, T/C [11] of 92.9% and a viability, T/C [12] of 98.3%. It also gave a viability, T/C [13] of 103%, a viability, T/C [14] of 107% and a viability, T/C [15] of 99.7%. The viability, T/C [16] was 94.9%, the viability, T/C [17] was 95.6% and the viability, T/C [18] was 93%. The viability, T/C [19] was 101%, the viability, T/C [20] was 96.8% and the viability, T/C [21] was 83.6%. It also gave a viability, T/C [22] of 100%, a viability, T/C [23] of 101% and a viability, T/C [24] of 101%. The viability, T/C [25] was 102%, the viability, T/C [26] was 94.1% and the viability, T/C [27] was 95.7%. For the same compound, the viability, T/C [28] was 84.3%, the viability, T/C [29] was 114% and the viability, T/C [30] was 108%. The viability, T/C [31] was 105%, the viability, T/C [32] was 92% and the viability, T/C [33] was 108%. It also gave a viability, T/C [34] of 101%, a viability, T/C [35] of 111% and a viability, T/C [36] of 109%.
`COc1ccc([C@@H](O)c2cc(-c3ncnc4cc(N5CCOCC5)ccc34)c(F)cc2Cl)nn1` + COC1C(OC(N)=O)C(O)C(Oc2ccc3c(O)c(NC(=O)c4ccc(O)c(CC=C(C)C)c4)c(=O)oc3c2C)OC1(C)C showed an IC50 (second compound 0.0316 µM) of 4.19 µM, an IC50 (second compound 0.1 µM) of 5.77 µM and an IC50 (second compound 0.316 µM) of 4.27 µM. The IC50 (second compound 1 µM) was 5.01 µM, the IC50 (second compound 3.16 µM) was 5.75 µM and the IC50 (second compound 10 µM) was 5.36 µM. The viability, T/C [1] was 105%, the viability, T/C [2] was 95.4% and the viability, T/C [3] was 81.4%. It also gave a viability, T/C [4] of 76.8%, a viability, T/C [5] of 61.2% and a viability, T/C [6] of 27.1%. For the same compound, the viability, T/C [7] was 92.8%, the viability, T/C [8] was 89.3% and the viability, T/C [9] was 96.2%. The viability, T/C [10] was 84.6%, the viability, T/C [11] was 65.3% and the viability, T/C [12] was 36.3%. It also gave a viability, T/C [13] of 107%, a viability, T/C [14] of 91.3% and a viability, T/C [15] of 102%. It also gave a viability, T/C [16] of 83.4%, a viability, T/C [17] of 58.7% and a viability, T/C [18] of 26.2%. The viability, T/C [19] was 96%, the viability, T/C [20] was 96.9% and the viability, T/C [21] was 97.5%. The viability, T/C [22] was 83.2%, the viability, T/C [23] was 65.3% and the viability, T/C [24] was 28.1%. The viability, T/C [25] was 108%, the viability, T/C [26] was 95.8% and the viability, T/C [27] was 97.8%. For the same compound, the viability, T/C [28] was 84.3%, the viability, T/C [29] was 72.1% and the viability, T/C [30] was 31.4%. The viability, T/C [31] was 108%, the viability, T/C [32] was 84.5% and the viability, T/C [33] was 113%. It also gave a viability, T/C [34] of 63.4%, a viability, T/C [35] of 75.7% and a viability, T/C [36] of 30%.

Reference: PubChem BioAssay AID1963851 (Molecular Pharmacology Branch, DTP, NCI, 2024)
